Results: patent US10464911B2, “1,3,4-oxadiazole sulfamide derivative compounds as histone deacetylase 6 inhibitor, and the pharmaceutical composition comprising the same” (Chong Kun Dang Pharmaceutical Corp., priority 2015, dated 2019)

Target: human recombinant HDAC6 (Homo sapiens (Human), UniProt Q9UBN7)
Assay: HDAC6 enzyme activity inhibition assay (HDAC Fluorimetric Drug Discovery Kit)
Format: biochemical
Conditions: for HDAC6 selectivity (fold): HDAC6 versus HDAC1; for IC50: human recombinant HDAC6, same protocol as HDAC1 test
Method: In order to examine the HDAC6 selectivity of the compounds of formula I of the present invention by HDAC1 and HDAC6 enzymatic activity inhibition assays, an experiment was performed using a conventional substance as a control.
HDAC enzyme activity was measured using a HDAC Fluorimetric Drug Discovery Kit (BML-AK511, 516, Enzo Life Science). For the HDAC1 enzyme activity test, human recombinant HDAC1 (BML-SE456) was used as an enzyme source, and Fluor de Lys®-“SIRT1 (BNL-KI177) was used as a substrate. A 5-fold dilution of the compound was seeded into a 96-well plate, and then 0.3 μg of the enzyme and 10 μM of the substrate were added to each well of the plate and allowed to react at 30 for 60 minutes. Then, Fluor de Lys®-Developer II (BML-KI176) was added thereto and allowed to react for 30 minutes, after which the fluorescence value (Ex 360, Em 460) was measured using a multi-plate reader (Flexstation 3, Molecular Device). The HDAC6 enzyme was tested using human recombinant HDAC6 (382180) (Calbiochem) according to the same protocol as the HDAC1 enzyme activity test method. Based on the resulting values, each IC50 value was calculated using GraphPad Prism4.0 program.

Sequence of human recombinant HDAC6 (Q9UBN7 whole entry): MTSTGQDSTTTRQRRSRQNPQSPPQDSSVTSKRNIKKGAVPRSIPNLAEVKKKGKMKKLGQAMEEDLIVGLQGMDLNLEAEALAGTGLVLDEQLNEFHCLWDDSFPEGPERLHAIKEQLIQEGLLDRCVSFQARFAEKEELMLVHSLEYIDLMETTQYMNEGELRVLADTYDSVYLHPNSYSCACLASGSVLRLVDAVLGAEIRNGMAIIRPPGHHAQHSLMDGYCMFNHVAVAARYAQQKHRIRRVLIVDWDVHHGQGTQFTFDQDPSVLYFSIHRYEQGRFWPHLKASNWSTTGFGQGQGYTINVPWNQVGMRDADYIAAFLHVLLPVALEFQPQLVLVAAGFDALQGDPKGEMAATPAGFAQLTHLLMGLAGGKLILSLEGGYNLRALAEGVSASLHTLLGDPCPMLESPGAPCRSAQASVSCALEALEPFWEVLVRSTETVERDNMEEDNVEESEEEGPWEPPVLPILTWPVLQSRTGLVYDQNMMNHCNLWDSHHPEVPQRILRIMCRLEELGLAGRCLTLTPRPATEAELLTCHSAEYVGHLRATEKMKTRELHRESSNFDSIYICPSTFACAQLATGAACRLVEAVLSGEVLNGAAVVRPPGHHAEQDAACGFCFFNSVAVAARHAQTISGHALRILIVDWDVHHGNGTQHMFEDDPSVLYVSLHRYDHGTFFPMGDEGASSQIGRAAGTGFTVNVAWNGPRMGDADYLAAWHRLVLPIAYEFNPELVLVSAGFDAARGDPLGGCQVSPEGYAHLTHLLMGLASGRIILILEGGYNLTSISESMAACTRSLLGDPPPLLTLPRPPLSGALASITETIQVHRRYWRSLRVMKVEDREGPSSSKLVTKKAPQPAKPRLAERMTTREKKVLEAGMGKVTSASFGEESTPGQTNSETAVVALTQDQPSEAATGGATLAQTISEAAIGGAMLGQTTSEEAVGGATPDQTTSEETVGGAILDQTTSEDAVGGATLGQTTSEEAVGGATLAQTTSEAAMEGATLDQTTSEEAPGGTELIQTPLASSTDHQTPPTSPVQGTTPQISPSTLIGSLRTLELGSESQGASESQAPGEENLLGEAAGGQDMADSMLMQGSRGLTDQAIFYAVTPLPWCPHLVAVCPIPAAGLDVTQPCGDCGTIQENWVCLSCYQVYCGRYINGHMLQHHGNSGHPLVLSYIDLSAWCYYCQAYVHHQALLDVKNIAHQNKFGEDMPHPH

O=S(=O)(N1CCOCC1)N(Cc1ccc(-c2nnc(C(F)(F)F)o2)cc1)c1ccc(F)cc1 [Compound 11198, N-(4-fluorophenyl)-N-(4-(5-(trifluoromethyl)-1,3,4-oxadiazol-2-yl)benzyl)morpholine-4-sulfonamide]
HDAC6 selectivity (fold): 738 fold | IC50: 136 nM

O=S(=O)(N1CCOCC1)N(Cc1ccc(-c2nnc(C(F)F)o2)cc1)c1ccc(F)cc1 [Compound 11199, N-(4-(5-(difluoromethyl)-1,3,4-oxadiazol-2-yl)benzyl)-N-(4-fluorophenyl)morpholine-4-sulfonamide]
HDAC6 selectivity (fold): 1911 fold | IC50: 52 nM

CC(=O)N1CCN(S(=O)(=O)N(Cc2ccc(-c3nnc(C(F)(F)F)o3)cc2F)c2ccccc2)CC1 [Compound 11294, 4-acetyl-N-(2-fluoro-4-(5-(trifluoromethyl)-1,3,4-oxadiazol-2-yl)benzyl)-N-phenylpiperazine-1-sulfonamide]
HDAC6 selectivity (fold): 1411 fold | IC50: 71 nM

CCC(=O)N1CCN(S(=O)(=O)N(Cc2ccc(-c3nnc(C(F)(F)F)o3)cc2F)c2ccccc2)CC1 [Compound 11295, N-(2-fluoro-4-(5-(trifluoromethyl)-1,3,4-oxadiazol-2-yl)benzyl)-N-phenyl-4-propionylpiperazine-1-sulfonamide]
HDAC6 selectivity (fold): 751 fold | IC50: 133 nM

CC(C)C(=O)N1CCN(S(=O)(=O)N(Cc2ccc(-c3nnc(C(F)(F)F)o3)cc2F)c2ccccc2)CC1 [Compound 11296, N-(2-fluoro-4-(5-(trifluoromethyl)-1,3,4-oxadiazol-2-yl)benzyl)-4-isobutyryl-N-phenylpiperazine-1-sulfonamide]
HDAC6 selectivity (fold): 636 fold | IC50: 157 nM

CS(=O)(=O)N1CCN(S(=O)(=O)N(Cc2ccc(-c3nnc(C(F)(F)F)o3)cc2F)c2ccccc2)CC1 [Compound 11297, N-(2-fluoro-4-(5-(trifluoromethyl)-1,3,4-oxadiazol-2-yl)benzyl)-4-(methylsulfonyl)-N-phenylpiperazine-1-sulfonamide]
HDAC6 selectivity (fold): 805 fold | IC50: 124 nM

CN1CCN(S(=O)(=O)N(Cc2ccc(-c3nnc(C(F)(F)F)o3)cc2F)c2ccccc2)CC1 [Compound 11298, N-(2-fluoro-4-(5-(trifluoromethyl)-1,3,4-oxadiazol-2-yl)benzyl)-4-methyl-N-phenylpiperazine-1-sulfonamide]
HDAC6 selectivity (fold): 1333 fold | IC50: 75 nM

CCN1CCN(S(=O)(=O)N(Cc2ccc(-c3nnc(C(F)(F)F)o3)cc2F)c2ccccc2)CC1 [Compound 11299, 4-ethyl-N-(2-fluoro-4-(5-(trifluoromethyl)-1,3,4-oxadiazol-2-yl)benzyl)-N-phenylpiperazine-1-sulfonamide]
HDAC6 selectivity (fold): 1169 fold | IC50: 86 nM

CC(C)N1CCN(S(=O)(=O)N(Cc2ccc(-c3nnc(C(F)(F)F)o3)cc2F)c2ccccc2)CC1 [Compound 11300, N-(2-fluoro-4-(5-(trifluoromethyl)-1,3,4-oxadiazol-2-yl)benzyl)-4-isopropyl-N-phenylpiperazine-1-sulfonamide]
HDAC6 selectivity (fold): 861 fold | IC50: 116 nM

Cl.O=S(=O)(N1CCNCC1)N(Cc1ccc(-c2nnc(C(F)F)o2)cc1F)c1ccccc1 [Compound 11301, N-(4-(5-(difluoromethyl)-1,3,4-oxadiazol-2-yl)-2-fluorobenzyl)-N-phenylpiperazine-1-sulfonamide Hydrochloride]
HDAC6 selectivity (fold): 3622 fold | IC50: 28 nM

CC(=O)N1CCN(S(=O)(=O)N(Cc2ccc(-c3nnc(C(F)F)o3)cc2F)c2ccccc2)CC1 [Compound 11302, 4-acetyl-N-(4-(5-(difluoromethyl)-1,3,4-oxadiazol-2-yl)-2-fluorobenzyl)-N-phenylpiperazine-1-sulfonamide]
HDAC6 selectivity (fold): 3174 fold | IC50: 32 nM

CCC(=O)N1CCN(S(=O)(=O)N(Cc2ccc(-c3nnc(C(F)F)o3)cc2F)c2ccccc2)CC1 [Compound 11303, N-(4-(5-(difluoromethyl)-1,3,4-oxadiazol-2-yl)-2-fluorobenzyl)-N-phenyl-4-propionylpiperazine-1-sulfonamide]
HDAC6 selectivity (fold): 3187 fold | IC50: 31 nM

CC(C)C(=O)N1CCN(S(=O)(=O)N(Cc2ccc(-c3nnc(C(F)F)o3)cc2F)c2ccccc2)CC1 [Compound 11304, N-(4-(5-(difluoromethyl)-1,3,4-oxadiazol-2-yl)-2-fluorobenzyl)-4-isobutyryl-N-phenylpiperazine-1-sulfonamide]
HDAC6 selectivity (fold): 1912 fold | IC50: 52 nM

CS(=O)(=O)N1CCN(S(=O)(=O)N(Cc2ccc(-c3nnc(C(F)F)o3)cc2F)c2ccccc2)CC1 [Compound 11305, N-(4-(5-(difluoromethyl)-1,3,4-oxadiazol-2-yl)-2-fluorobenzyl)-4-(methylsulfonyl)-N-phenylpiperazine-1-sulfonamide]
HDAC6 selectivity (fold): 2620 fold | IC50: 38 nM

CN1CCN(S(=O)(=O)N(Cc2ccc(-c3nnc(C(F)F)o3)cc2F)c2ccccc2)CC1 [Compound 11306, N-(4-(5-(difluoromethyl)-1,3,4-oxadiazol-2-yl)-2-fluorobenzyl)-4-methyl-N-phenylpiperazine-1-sulfonamide]
HDAC6 selectivity (fold): 4363 fold | IC50: 23 nM

CCN1CCN(S(=O)(=O)N(Cc2ccc(-c3nnc(C(F)F)o3)cc2F)c2ccccc2)CC1 [Compound 11307, N-(4-(5-(difluoromethyl)-1,3,4-oxadiazol-2-yl)-2-fluorobenzyl)-4-ethyl-N-phenylpiperazine-1-sulfonamide]
HDAC6 selectivity (fold): 2366 fold | IC50: 42 nM

CC(C)N1CCN(S(=O)(=O)N(Cc2ccc(-c3nnc(C(F)F)o3)cc2F)c2ccccc2)CC1 [Compound 11308, N-(4-(5-(difluoromethyl)-1,3,4-oxadiazol-2-yl)-2-fluorobenzyl)-4-isopropyl-N-phenylpiperazine-1-sulfonamide]
HDAC6 selectivity (fold): 2168 fold | IC50: 46 nM

CS(=O)(=O)N1CCN(S(=O)(=O)N(Cc2ccc(-c3nnc(C(F)(F)F)o3)cc2F)c2cccc(F)c2)CC1 [Compound 11310, N-(2-fluoro-4-(5-(trifluoromethyl)-1,3,4-oxadiazol-2-yl)benzyl)-N-(3-fluorophenyl)-4-(methylsulfonyl)piperazine-1-sulfonamide]
HDAC6 selectivity (fold): 1311 fold | IC50: 76 nM

CC(=O)N1CCN(S(=O)(=O)N(Cc2ccc(-c3nnc(C(F)(F)F)o3)cc2F)c2cccc(F)c2)CC1 [Compound 11311, 4-acetyl-N-(2-fluoro-4-(5-(trifluoromethyl)-1,3,4-oxadiazol-2-yl)benzyl)-N-(3-fluorophenyl)piperazine-1-sulfonamide]
HDAC6 selectivity (fold): 1188 fold | IC50: 84 nM

CN1CCN(S(=O)(=O)N(Cc2ccc(-c3nnc(C(F)(F)F)o3)cc2F)c2cccc(F)c2)CC1 [Compound 11312, N-(2-fluoro-4-(5-(trifluoromethyl)-1,3,4-oxadiazol-2-yl)benzyl)-N-(3-fluorophenyl)-4-methylpiperazine-1-sulfonamide]
HDAC6 selectivity (fold): 1371 fold | IC50: 73 nM

Cl.O=S(=O)(N1CCNCC1)N(Cc1ccc(-c2nnc(C(F)F)o2)cc1F)c1cccc(F)c1 [Compound 11313, N-(4-(5-(difluoromethyl)-1,3,4-oxadiazol-2-yl)-2-fluorobenzyl)-N-(3-fluorophenyl)piperazine-1-sulfonamide Hydrochloride]
HDAC6 selectivity (fold): 4246 fold | IC50: 24 nM
